Source: US11021521B2, “Pore-modified gram-negative bacteria and uses thereof” (priority 2015, dated 2021)
Converted amounts (≈) assume the structure as drawn. Read-outs that look alike come from different tables or passages of the source. Bridge positions count the residues as written; N and C are the ends. Square brackets hold non-standard residues; d marks the D form. Peptide text beside a SMILES is read from it. * marks the point of attachment. Ileψ(thiazoline)Cys = CC[C@H](C)[C@H](N)C1=N[C@H](C(=O)*)CS1; dOrn = NCCC[C@@H](N)C(=O)O

Tests used:
Test in all cases: microbe, parasite or virus in culture
Assay type in all cases: cell-based
[1] = system: A. baumannii Ab-ARA (wild type, empty cassette); settings: Acinetobacter baumannii, at least three independent measurements, read-out: MIC
[2] = system: A. baumannii Ab-ARA-EcPore (hyperporinated); settings: Acinetobacter baumannii; Ab-ARA-EcPore; at least three independent measurements; read-out: MIC
[3] = system: A. baumannii AbΔ3-ARA-EcPore (efflux-deficient, hyperporinated); settings: Acinetobacter baumannii; AbΔ3-ARA-EcPore; at least three independent measurements; read-out: MIC
[4] = system: A. baumannii AbΔ3-ARA (efflux-deficient); settings: Acinetobacter baumannii; AbΔ3-ARA; at least three independent measurements; read-out: MIC
[5] = system: P. aeruginosa PAO1-LAC (wild type, empty cassette); settings: Pseudomonas aeruginosa, at least three independent measurements, read-out: MIC
[6] = system: B. thailandensis BtΔ2-RHA (efflux-deficient); settings: Burkholderia thailandensis
[7] = system: B. cepacia Bc-RHA (wild type, empty cassette); settings: Burkholderia cepacia, read-out: MIC
[8] = system: B. thailandensis Bt-RHA-BtPore (hyperporinated)
[9] = system: B. cepacia Bc-RHA-BtPore (hyperporinated); settings: Burkholderia cepacia; Bc-RHA-BtPore; read-out: MIC
[10] = system: B. thailandensis Bt-RHA (wild type, empty cassette)
[11] = system: P. aeruginosa PAO1-LAC-EcPore (hyperporinated); settings: Pseudomonas aeruginosa; PAO1-LAC-EcPore; at least three independent measurements; read-out: MIC
[12] = system: B. thailandensis BtΔ2-RHA-BtPore (efflux-deficient, hyperporinated); settings: Burkholderia thailandensis
[13] = system: P. aeruginosa PaΔ3-LAC (efflux-deficient); settings: Pseudomonas aeruginosa, at least three independent measurements, read-out: MIC
[14] = system: P. aeruginosa PaΔ3-LAC-EcPore (efflux-deficient, hyperporinated); settings: Pseudomonas aeruginosa; PaΔ3-LAC-EcPore; at least three independent measurements; read-out: MIC

Q: Which results are given for NCC[C@H](O)C(=O)N[C@@H]1C[C@H](N)[C@@H](O[C@H]2O[C@H](CN)[C@@H](O)[C@H](O)[C@H]2O)[C@H](O)[C@H]1O[C@H]1O[C@H](CO)[C@@H](O)[C@H](N)[C@H]1O [Amikacin]?
A: MIC [1]: 8 µg/mL (≈ 13.7 µM); MIC [2]: 4 µg/mL (≈ 6.83 µM); MIC [3]: 4 µg/mL (≈ 6.83 µM); MIC [4]: 4 µg/mL (≈ 6.83 µM); MIC [5]: 2 µg/mL (≈ 3.42 µM); MIC [6]: 4 µg/mL (≈ 6.83 µM); MIC [7]: 128 µg/mL (≈ 219 µM); MIC ([8]; Burkholderia thailandensis): 256 µg/mL (≈ 437 µM); MIC [9]: 8 µg/mL (≈ 13.7 µM); MIC ([10]; Burkholderia thailandensis): 256 µg/mL (≈ 437 µM); MIC [11]: 2 µg/mL (≈ 3.42 µM); MIC [12]: 2 µg/mL (≈ 3.42 µM)

Q: With CC1(C)S[C@@H]2[C@H](NC(=O)[C@H](N)c3ccccc3)C(=O)N2[C@H]1C(=O)O [Ampicillin] as the molecule, how does the MIC [1] read?
A: 2050 µg/mL (≈ 5860 µM)

Q: And the MIC [9]?
A: 512 µg/mL (≈ 1470 µM)

Q: And the MIC [11]?
A: 16 µg/mL (≈ 45.8 µM)

Q: What does the source list for CC[C@H]1OC(=O)[C@H](C)[C@@H](O[C@H]2C[C@@](C)(OC)[C@@H](O)[C@H](C)O2)[C@H](C)[C@@H](O[C@@H]2O[C@H](C)C[C@H](N(C)C)[C@H]2O)[C@](C)(O)C[C@@H](C)CN(C)[C@H](C)[C@@H](O)[C@]1(C)O [Azithromycin]?
A: MIC [1]: 0.31 µg/mL (≈ 0.414 µM); MIC [2]: 0.04 µg/mL (≈ 0.0534 µM); MIC [3]: 0.08 µg/mL (≈ 0.107 µM); MIC [4]: 0.31 µg/mL (≈ 0.414 µM); MIC [13]: 4 µg/mL (≈ 5.34 µM); MIC [6]: 1 µg/mL (≈ 1.34 µM); MIC [14]: 0.063 µg/mL (≈ 0.0841 µM); MIC [7]: 64 µg/mL (≈ 85.4 µM); MIC ([8]; Burkholderia thailandensis): 64 µg/mL (≈ 85.4 µM); MIC [9]: 1 to 2 µg/mL (≈ 1.34 to 2.67 µM); MIC ([10]; Burkholderia thailandensis): 128 µg/mL (≈ 171 µM); MIC [11]: 4 µg/mL (≈ 5.34 µM); MIC [12]: 0.032 µg/mL (≈ 0.0427 µM)

Q: With CC[C@H](C)[C@H](N)C1=N[C@H](C(=O)N[C@@H](CC(C)C)C(=O)N[C@H](CCC(=O)O)C(=O)N[C@H](C(=O)N[C@H]2CCCCNC(=O)[C@H](CC(N)=O)NC(=O)[C@@H](CC(=O)O)NC(=O)[C@H](Cc3cnc[nH]3)NC(=O)[C@@H](Cc3ccccc3)NC(=O)[C@H]([C@@H](C)CC)NC(=O)[C@@H](CCCN)NC2=O)[C@@H](C)CC)CS1 [Bacitracin] ({Ileψ(thiazoline)Cys}-L[dE]IK[dOrn]I[dF]H[dD]N; lactam 4-C) as the molecule, how does the MIC [1] read?
A: 256 µg/mL (≈ 180 µM)

Q: What about the MIC [2] of the same molecule?
A: 32 µg/mL (≈ 22.5 µM)

Q: And the MIC [3]?
A: 64 µg/mL (≈ 45 µM)

Q: And the MIC [4]?
A: 512 µg/mL (≈ 360 µM)

Q: And the MIC [5]?
A: > 1020 µg/mL

Q: What about the MIC [13] of the same molecule?
A: > 1020 µg/mL

Q: And the MIC [6]?
A: 1020 µg/mL (≈ 720 µM)

Q: And the MIC [14]?
A: 64 µg/mL (≈ 45 µM)

Q: And the MIC [7]?
A: > 1020 µg/mL

Q: What about the MIC ([8]; Burkholderia thailandensis) of the same molecule?
A: 1020 µg/mL (≈ 720 µM)

Q: What about the MIC [9] of the same molecule?
A: 16 µg/mL (≈ 11.2 µM)

Q: And the MIC ([10]; Burkholderia thailandensis)?
A: > 1020 µg/mL

Q: And the MIC [11]?
A: 64 µg/mL (≈ 45 µM)

Q: What about the MIC [12] of the same molecule?
A: 8 µg/mL (≈ 5.62 µM)

Q: How did the MIC [1] turn out when CC1(C)S[C@@H]2[C@H](NC(=O)C(C(=O)O)c3ccccc3)C(=O)N2[C@H]1C(=O)O (some centres unmarked) [Carbenicillin] was run?
A: 2050 µg/mL (≈ 5410 µM)

Q: And the MIC [2]?
A: 32 µg/mL (≈ 84.6 µM)

Q: And the MIC [3]?
A: 64 µg/mL (≈ 169 µM)

Q: What about the MIC [4] of the same molecule?
A: 2050 µg/mL (≈ 5410 µM)

Q: What about the MIC [13] of the same molecule?
A: 1 µg/mL (≈ 2.64 µM)

Q: What about the MIC [6] of the same molecule?
A: 256 µg/mL (≈ 677 µM)

Q: And the MIC [14]?
A: 0.125 µg/mL (≈ 0.33 µM)

Q: What about the MIC [7] of the same molecule?
A: > 1020 µg/mL

Q: What about the MIC ([8]; Burkholderia thailandensis) of the same molecule?
A: 256 µg/mL (≈ 677 µM)

Q: And the MIC [9]?
A: 128 µg/mL (≈ 338 µM)

Q: And the MIC [10]?
A: 256 to 512 µg/mL

Q: And the MIC [11]?
A: 2 µg/mL (≈ 5.29 µM)

Q: And the MIC [12]?
A: 8 µg/mL (≈ 21.1 µM)

Q: Which MIC [1] does the source give for O=C(N[C@H](CO)[C@H](O)c1ccc([N+](=O)[O-])cc1)C(Cl)Cl [Chloramphenicol] here?
A: 32 µg/mL (≈ 99 µM)

Q: What about the MIC [2] of the same molecule?
A: 8 µg/mL (≈ 24.8 µM)

Q: What about the MIC [3] of the same molecule?
A: 4 µg/mL (≈ 12.4 µM)

Q: And the MIC [4]?
A: 8 µg/mL (≈ 24.8 µM)

Q: And the MIC [13]?
A: 1 µg/mL (≈ 3.09 µM)

Q: What about the MIC [6] of the same molecule?
A: 4 µg/mL (≈ 12.4 µM)

Q: What about the MIC [14] of the same molecule?
A: 0.125 µg/mL (≈ 0.387 µM)

Q: What about the MIC [7] of the same molecule?
A: 16 µg/mL (≈ 49.5 µM)

Q: And the MIC ([8]; Burkholderia thailandensis)?
A: 8 µg/mL (≈ 24.8 µM)

Q: What about the MIC [9] of the same molecule?
A: 4 µg/mL (≈ 12.4 µM)

Q: What about the MIC ([10]; Burkholderia thailandensis) of the same molecule?
A: 8 µg/mL (≈ 24.8 µM)

Q: And the MIC [11]?
A: 2 µg/mL (≈ 6.19 µM)

Q: And the MIC [12]?
A: 1 µg/mL (≈ 3.09 µM)

Q: Which MIC [7] does the source give for O=C(O)c1cn(C2CC2)c2cc(N3CCNCC3)c(F)cc2c1=O [Ciprofloxacin] here?
A: 1 µg/mL (≈ 3.02 µM)

Q: With Cc1onc(-c2ccccc2Cl)c1C(=O)N[C@@H]1C(=O)N2[C@@H]1SC(C)(C)[C@@H]2C(=O)O [Cloxacillin] as the molecule, how does the MIC [1] read?
A: 1020 µg/mL (≈ 2350 µM)

Q: And the MIC [2]?
A: 128 µg/mL (≈ 294 µM)

Q: What about the MIC [3] of the same molecule?
A: 16 µg/mL (≈ 36.7 µM)

Q: And the MIC [4]?
A: 128 µg/mL (≈ 294 µM)

Q: And the MIC [13]?
A: 128 µg/mL (≈ 294 µM)

Q: What about the MIC [6] of the same molecule?
A: 32 µg/mL (≈ 73.4 µM)

Q: And the MIC [14]?
A: 8 µg/mL (≈ 18.4 µM)

Q: And the MIC [7]?
A: 256 µg/mL (≈ 587 µM)

Q: What about the MIC [8] of the same molecule?
A: 128 to 256 µg/mL

Q: And the MIC [9]?
A: 4 µg/mL (≈ 9.18 µM)

Q: And the MIC ([10]; Burkholderia thailandensis)?
A: 256 µg/mL (≈ 587 µM)

Q: And the MIC [11]?
A: 512 µg/mL (≈ 1170 µM)

Q: What about the MIC [12] of the same molecule?
A: 0.5 µg/mL (≈ 1.15 µM)

Q: What does the source list for C[C@H]1c2cccc(O)c2C(=O)C2=C(O)[C@]3(O)C(=O)C(C(N)=O)=C(O)[C@@H](N(C)C)[C@@H]3[C@@H](O)[C@@H]21 [Doxycycline]?
A: MIC [1]: 0.04 µg/mL (≈ 0.09 µM); MIC [2]: 0.02 µg/mL (≈ 0.045 µM); MIC [3]: 0.0016 µg/mL (≈ 0.0036 µM); MIC [4]: 0.0016 µg/mL (≈ 0.0036 µM); MIC [6]: 0.02 µg/mL (≈ 0.045 µM); MIC [7]: 6 µg/mL (≈ 13.5 µM); MIC ([8]; Burkholderia thailandensis): 1.5 µg/mL (≈ 3.38 µM); MIC [9]: 3 µg/mL (≈ 6.75 µM); MIC ([10]; Burkholderia thailandensis): 3 µg/mL (≈ 6.75 µM); MIC [12]: 0.01 µg/mL (≈ 0.0225 µM)
